IC50 data for eleven compounds are collected here from patent publication US11304929B2, “Tosylacetate based compounds and derivatives thereof as PHGDH inhibitors” (priority 2017, dated 2022).

Sequence of PHGDH (O43175 2-533 limits assumed): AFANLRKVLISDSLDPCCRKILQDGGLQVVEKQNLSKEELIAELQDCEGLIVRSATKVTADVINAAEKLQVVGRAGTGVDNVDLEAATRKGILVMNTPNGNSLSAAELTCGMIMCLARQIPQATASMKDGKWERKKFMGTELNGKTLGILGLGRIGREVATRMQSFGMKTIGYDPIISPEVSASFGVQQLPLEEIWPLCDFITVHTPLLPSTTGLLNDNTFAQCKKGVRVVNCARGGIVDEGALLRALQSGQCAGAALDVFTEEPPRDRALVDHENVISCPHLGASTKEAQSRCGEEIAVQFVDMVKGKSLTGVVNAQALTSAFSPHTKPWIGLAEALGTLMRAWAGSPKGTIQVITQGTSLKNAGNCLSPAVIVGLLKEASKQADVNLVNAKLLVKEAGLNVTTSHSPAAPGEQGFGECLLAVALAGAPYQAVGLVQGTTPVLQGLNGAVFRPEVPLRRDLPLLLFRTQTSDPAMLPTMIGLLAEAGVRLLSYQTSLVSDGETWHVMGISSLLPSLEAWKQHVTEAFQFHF

One experiment addresses PHGDH (Homo sapiens (Human), UniProt O43175). As to the kind of experiment: 3-Phosphoglycerate Dehydrogenase (PHGDH) Fluorescence Intensity Assay, run at two NAD/3-PG ratios: PHGDH_HIGH_NAD/3-PG (250 μM NAD/500 μM 3-PG) and PHGDH_500_NAD/3-PG (500 μM NAD/500 μM 3-PG). It counts as biochemical. The following applies: 250 μM NAD/500 μM 3-PG; read-out: IC50 (PHGDH_HIGH_NAD/3-PG).
`Cc1cc(Cl)c2cc(C(=O)N[C@H](C)c3ccc([S+]([O-])CC(=O)OC(C)C)cc3)n(C)c2c1` (stereo partly drawn) [Example 13-007, propan-2-yl 2-{4-[(1R)-1-[(4-chloro-1,6-dimethyl-1H-indol-2-yl)formamido]ethyl]benzenesulfinyl}acetate]: the IC50 stood at 2140 nM.

For `Cc1cc(Cl)c2cc(C(=O)N[C@H](CO)c3ccc([S+]([O-])CC(=O)OC(C)C)cc3)n(C)c2c1` (stereo partly drawn) [Example 13-008, propan-2-yl 2-{4-[(1S)-1-[(4-chloro-1,6-dimethyl-1H-indol-2-yl)formamido]-2-hydroxyethyl]benzenesulfinyl}acetate], the IC50 worked out at 695 nM.

As for `Cc1cc2c(cc(C(=O)N[C@H](CO)c3ccc([S+]([O-])CC(=O)OC(C)C)cc3)n2C)c(Cl)c1Cl` (stereo partly drawn) [Example 13-009, propan-2-yl 2-{4-[(1S)-1-[(4,5-dichloro-1,6-dimethyl-1H-indol-2-yl)formamido]-2-hydroxyethyl]benzenesulfinyl}acetate], the IC50 is 428 nM.

Still in this experiment, the particulars now being: 500 μM NAD/500 μM 3-PG; read-out: IC50 (PHGDH_500_NAD/3-PG).
For the compound `Cc1cc2c(cc(C(=O)N[C@H](CO)c3ccc([S@+]([O-])CC(=O)OC4CCOCC4)cc3)n2C)c(Cl)c1Cl` [Example 13-005, oxan-4-yl 2-[(R)-4-[(1S)-1-[(4,5-dichloro-1,6-dimethyl-1H-indol-2-yl)formamido]-2-hydroxyethyl]benzenesulfinyl]acetate], the IC50 is 191 nM.

Regarding `Cc1cc2c(cc(C(=O)N[C@H](CO)c3ccc([S@+]([O-])CC(=O)OC(C)C)cc3)n2C)c(F)c1F` [Example 13-006, propan-2-yl 2-[(R)-4-[(1S)-1-[(4,5-difluoro-1,6-dimethyl-1H-indol-2-yl)formamido]-2-hydroxyethyl]benzenesulfinyl]acetate], the IC50 turned out to be 2080 nM.

For `Cc1cc(Cl)c2cc(C(=O)N[C@H](CO)c3ccc([S+]([O-])CC(=O)OC(C)C)cc3)n(C)c2c1` (stereo partly drawn) [Example 13-008, propan-2-yl 2-{4-[(1S)-1-[(4-chloro-1,6-dimethyl-1H-indol-2-yl)formamido]-2-hydroxyethyl]benzenesulfinyl}acetate], the IC50 was found to be 1200 nM.

For the compound `Cc1cc2c(cc(C(=O)N[C@H](CO)c3ccc([S+]([O-])CC(=O)OC(C)C)cc3)n2C)c(Cl)c1Cl` (stereo partly drawn) [Example 13-009, propan-2-yl 2-{4-[(1S)-1-[(4,5-dichloro-1,6-dimethyl-1H-indol-2-yl)formamido]-2-hydroxyethyl]benzenesulfinyl}acetate], the IC50 stood at 797 nM.

Take `Cc1cc2c(cc(C(=O)N[C@H](CO)c3ccc([S+]([O-])CC(=O)OC(C)C)cc3)n2C)c(F)c1F` (stereo partly drawn) [Example 13-010, propan-2-yl 2-{4-[(1S)-1-[(4,5-difluoro-1,6-dimethyl-1H-indol-2-yl)formamido]-2-hydroxyethyl]benzenesulfinyl}acetate]: the IC50 stood at 1060 nM.

For the compound `Cc1cc2c(cc(C(=O)N[C@H](C)c3ccc([S+]([O-])CC(=O)OC(C)C)cc3)n2C)c(Cl)c1Cl` (stereo partly drawn) [Example 13-011, propan-2-yl 2-{4-[(1R)-1-[(4,5-dichloro-1,6-dimethyl-1H-indol-2-yl)formamido]ethyl]benzenesulfinyl}acetate], the IC50 came to 1740 nM.

The next experiment has as its system MDA-MB-468. The experiment in a line: 13C3 Serine Assay MDA-MB-468 (13C3 serine levels by LC/MS/MS). The following applies: Homo sapiens; MDA-MB-468 cells, 13C3 serine levels by LC/MS/MS; read-out: IC50 (13CSERINE). It counts as cell-based.
Regarding `Cc1cc(Cl)c2cc(C(=O)N[C@H](C)c3ccc(S(=O)(=O)CC(=O)OC(C)C)cc3)n(C)c2c1` [Example 01-018, propan-2-yl 2-{4-[(1R)-1-[(4-chloro-1,6-dimethyl-1H-indol-2-yl)formamido]ethyl]benzenesulfonyl}acetate], the IC50 came out at 66.3 nM.

Take `COC(=O)CS(=O)(=O)c1ccc([C@@H](C)NC(=O)c2cc3c(Cl)cc(C)cc3n2C)nc1` [Example 01-029, methyl 2-({6-[(1R)-1-[(4-chloro-1,6-dimethyl-1H-indol-2-yl)formamido]ethyl]pyridin-3-yl}sulfonyl)acetate]: the IC50 worked out at 51.4 nM.

Turning to `C[C@@H](NC(=O)c1cc(-c2ccc(F)cc2)nn1C)c1ccc(S(=O)(=O)CC(=O)NOCCN2CCOCC2)cc1` [Example 15-001, 3-(4-fluorophenyl)-1-methyl-N-[(1R)-1-[4-({[2-(morpholin-4-yl)ethoxy]carbamoyl}methanesulfonyl)phenyl]ethyl]-1H-pyrazole-5-carboxamide], the IC50 stood at 55400 nM.

Take `C[C@@H](NC(=O)c1cc(-c2ccc(F)cc2)nn1C)c1ccc(S(=O)(=O)CC(=O)NOC2CCN(C)CC2)cc1` [Example 15-002, 3-(4-fluorophenyl)-1-methyl-N-[(1R)-1-[4-({[(1-methylpiperidin-4-yl)oxy]carbamoyl}methanesulfonyl)phenyl]ethyl]-1H-pyrazole-5-carboxamide]: the IC50 came out at 85300 nM.
